EC50 data for 45 molecules are collected here from patent publication US20240368096A1 (Enanta Pharmaceuticals, Inc., priority 2022, published 2024).

The assay concerns HBV. In words: HBV infection in HepG2-NTCP cells (HBeAg AlphaLISA in supernatants). The following applies: Hepatitis B virus, 192 h. The assay is classed as cell-based. A digest of the protocol: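 HepG2-NTCP A3 cells were pre-incubated 2 h with 3-fold serially diluted compounds, then infected with HBV at 2000 GE/cell with 4% PEG (0.5% DMSO final). After washing on day 1, cells stayed in 2.5% DMSO medium; supernatant HBeAg measured by AlphaLISA on day 8, EC50 versus DMSO controls.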
On the technique in general: In Alpha technology, singlet oxygen from a donor bead excites a nearby acceptor bead.

[1] abbreviates: HBV infection of HepG2-NTCP cells, HBeAg in supernatants at day 8 post infection, read-out: Cellular EC50.

Read-outs that look alike come from different tables or passages of the source. Where only a bound is given, the exact number is not on record here.

Consider `CN1[C@H](C2CCCCC2)CN(c2ccccc2)c2cc(Cl)c(-c3ccc(NC(=O)OCc4ccccc4)c(C(=O)O)c3)cc2S1(=O)=O` [Example 236], for which the EC50 under setting [1] is below 0.1 µM.

In the case of `CCOP(=O)(OCC)c1cccc(-c2cc3c(cc2Cl)N(c2ccccc2)C[C@@H](CC(C)C)N(C)S3(=O)=O)c1` [Example 169], the EC50 (read-out: Cellular EC50 (μM)) is above 1 µM.

With `CC(C)CC1CN(c2ccccc2)c2cc(Cl)c(-c3cccc(C(=O)O)c3)cc2S(=O)(=O)N1C` (stereo not drawn) [Example 33], the EC50 under setting [1] fell in the range of 0.1 to 1 µM.

Take `CC(C)C[C@@H]1CN(c2ccccc2)c2cc(OC3COC3)c(-c3ccc(F)c(C(=O)O)c3)cc2S(=O)(=O)N1C` [Example 443]: the EC50 under setting [1] fell in the range of 0.1 to 1 µM.

As to `CC(C)C[C@@H]1CN(c2ccccc2)c2cc(OCCc3cscn3)c(-c3ccc(F)c(C(=O)O)c3)cc2S(=O)(=O)N1C` [Example 460], under setting [1], the EC50 is below 0.1 µM.

As to `CC(C)C[C@@H]1CN(c2ccccc2)c2cc(Cl)c(-c3ccc(-c4ccoc4)c(C(=O)O)c3)cc2S(=O)(=O)N1C` [Example 216], the EC50 under setting [1] was 0.1 to 1 µM.

Take `CN1[C@H](C2CCC2)CN(c2ccccc2)c2cc(Cl)c(-c3ccc(OC(F)(F)F)c(C(=O)O)c3)cc2S1(=O)=O` [Example 177]: the EC50 under setting [1] is below 0.1 µM.

As to `CN1[C@H](C2CCC2)CN(c2ccccc2)c2cc(Cl)c(-c3ccc(Cl)c(C(=O)O)c3)cc2S1(=O)=O` [Example 81], under setting [1], the EC50 is below 0.1 µM.

Turning to `CN1[C@H](C2CCCCC2)CN(c2ccccc2)c2cc(Cl)c(-c3cc(C(=O)O)ccc3F)cc2S1(=O)=O` [Example 150, (R)-3-(7-chloro-3-cyclohexyl-2-methyl-1,1-dioxido-5-phenyl-2,3,4,5-tetrahydrobenzo[f][1,2,5]thiadiazepin-8-yl)-4-fluorobenzoic acid], the EC50 under setting [1] was below 0.1 µM.

As to `CC(C)C[C@@H]1CN(c2ccccc2)c2cc(Cl)c(-c3ccc(OCC(F)(F)F)c(C(=O)O)c3)cc2S(=O)(=O)N1C` [Example 214, (R)-5-(7-chloro-3-isobutyl-2-methyl-1,1-dioxido-5-phenyl-2,3,4,5-tetrahydrobenzo[f] [1,2,5]thiadiazepin-8-yl)-2-(2,2,2-trifluoroethoxy)benzoic acid], under setting [1], the EC50 fell in the range of 0.1 to 1 µM.

On to `CN1[C@H](C2CCCCC2)CNc2cc(OCC(F)(F)F)c(-c3ccc(Cl)c(C(=O)O)c3)cc2S1(=O)=O` [Example 477], for which the concentration for a half-maximal effect (EC50) under setting [1] was 0.1 to 1 µM.

For `CCCCCCOc1cc2c(cc1-c1ccc(F)c(C(=O)O)c1)S(=O)(=O)N(C)[C@H](C1CCCCC1)CN2c1ccccc1` [Example 352], the EC50 under setting [1] was below 0.1 µM.

`CN1[C@H](C2CCCCC2)CN(c2ccccc2)c2cc(Oc3cc(F)ccc3F)c(-c3ccc(F)c(C(=O)O)c3)cc2S1(=O)=O` [Example 403]: under setting [1], the EC50 was below 0.1 µM.

As for `CN1[C@H](CN2CCC(F)(F)C2)CN(c2ccccc2)c2cc(Cl)c(-c3ccc(F)c(C(=O)O)c3)cc2S1(=O)=O` [Example 111], the concentration giving a half-maximal response (EC50) under setting [1] is above 1 µM.

As to `CN1[C@H](C2CCCCC2)CN(c2cccc(C#N)c2)c2cc(Cl)c(-c3ccc(F)c(C(=O)O)c3)cc2S1(=O)=O` [Example 291], under setting [1], the EC50 is below 0.1 µM.

With `CN1[C@H](C2CCCCC2)CN(c2cncc(F)c2)c2cc(Cl)c(-c3ccc(F)c(C(=O)O)c3)cc2S1(=O)=O` [Example 280, (R)-5-(7-chloro-3-cyclohexyl-5-(5-fluoropyridin-3-yl)-2-methyl-1,1-dioxido-2,3,4,5-tetrahydrobenzo[f][1,2,5]thiadiazepin-8-yl)-2-fluorobenzoic acid], under setting [1], the EC50 was 0.1 to 1 µM.

As to `CN1[C@H](C2CCCCC2)CN(c2ccnc(F)c2)c2cc(Cl)c(-c3ccc(F)c(C(=O)O)c3)cc2S1(=O)=O` [Example 284], under setting [1], the EC50 was below 0.1 µM.

With `CCCC[C@@H]1CN(c2ccccc2)c2cc(Oc3ccccc3C(F)(F)F)c(-c3ccc(F)c(C(=O)O)c3)cc2S(=O)(=O)N1C` [Example 419], under setting [1], the EC50 was below 0.1 µM.

In the case of `CC(C)C[C@@H]1CN(c2ccccc2)c2cc(Oc3ccc(OC(F)(F)F)cc3)c(-c3ccc(F)c(C(=O)O)c3)cc2S(=O)(=O)N1C` [Example 439], the EC50 under setting [1] is below 0.1 µM.

For the molecule `CN1[C@H](C2CCCCC2)CN(c2ccccc2)c2cc(Cl)c(-c3cc(F)c(N)c(C(=O)O)c3)cc2S1(=O)=O` [Example 190], the EC50 under setting [1] lay within 0.1 to 1 µM.

For the molecule `CN1[C@H](C2CCCCC2)CN(c2ccccc2)c2cc(Cl)c(-c3ccc(F)c(C(=O)O)n3)cc2S1(=O)=O` [Example 141, (R)-6-(7-chloro-3-cyclohexyl-2-methyl-1,1-dioxido-5-phenyl-2,3,4,5-tetrahydrobenzo[f][1,2,5]thiadiazepin-8-yl)-3-fluoropicolinic acid], the EC50 under setting [1] fell in the range of 0.1 to 1 µM.

For the molecule `CN1[C@H](C2CCCCC2)CN(c2ccccc2)c2cc(Cl)c(-c3cc(NC(=O)OCC4(C)CC4)c(C(=O)O)s3)cc2S1(=O)=O` [Example 254], under setting [1], the EC50 was below 0.1 µM.

For `CN1[C@H](CN2CCCCC2)CN(c2ccccc2)c2cc(Cl)c(-c3ccc(F)c(C(=O)O)c3)cc2S1(=O)=O` [Example 108, (R)-5-(7-chloro-2-methyl-1,1-dioxido-5-phenyl-3-(piperidin-1-ylmethyl)-2,3,4,5-tetrahydrobenzo[f][1,2,5]thiadiazepin-8-yl)-2-fluorobenzoic acid], the EC50 under setting [1] is above 1 µM.

For `CC(C)CS(=O)(=O)Nc1ccc(-c2cc3c(cc2Cl)N(c2ccccc2)C[C@@H](C2CCCCC2)N(C)S3(=O)=O)cc1C(=O)O` [Example 267, (R)-5-(7-chloro-3-cyclohexyl-2-methyl-1,1-dioxido-5-phenyl-2,3,4,5-tetrahydrobenzo[f][1,2,5]thiadiazepin-8-yl)-2-((2-methylpropyl)sulfonamido)benzoic acid], the EC50 under setting [1] is below 0.1 µM.

Turning to `CN1[C@H](C2CCCCC2)CN(c2ccccc2)c2cc(Cl)c(-c3cccc(P(=O)(O)O)c3)cc2S1(=O)=O` [Example 232, (R)-(3-(7-chloro-3-cyclohexyl-2-methyl-1,1-dioxido-5-phenyl-2,3,4,5-tetrahydrobenzo[f][1,2,5]thiadiazepin-8-yl)phenyl)phosphonic acid], the EC50 under setting [1] lay in the range of 0.1 to 1 µM.

For `CC(C)NC(=O)N1CCC(Oc2cc3c(cc2-c2ccc(F)c(C(=O)O)c2)S(=O)(=O)N(C)[C@H](C2CCCCC2)CN3c2ccccc2)CC1` [Example 400, (R)-5-(3-cyclohexyl-7-((1-(isopropylcarbamoyl)piperidin-4-yl)oxy)-2-methyl-1,1-dioxido-5-phenyl-2,3,4,5-tetrahydrobenzo[f][1,2,5]thiadiazepin-8-yl)-2-fluorobenzoic acid], the half-maximal effective concentration (EC50) under setting [1] was 0.1 to 1 µM.

On to `CC(C)C[C@@H]1CN(c2ccccc2)c2cc(Cl)c(-c3cccc(C(N)=O)c3)cc2S(=O)(=O)N1C` [Example 167], for which, under setting [1], the EC50 is above 1 µM.

For `CN1[C@H](C2CCCCC2)CNc2cc(C34CC(C3)C4)c(-c3ccc(F)c(C(=O)O)c3)cc2S1(=O)=O` [Example 585], the EC50 under setting [1] lay in the range of 0.1 to 1 µM.

In the case of `CN1[C@H](CC2CC2)CN(c2ccccc2)c2cc(Cl)c(-c3cncc(C(=O)O)c3)cc2S1(=O)=O` [Example 74], the EC50 under setting [1] is above 1 µM.

Turning to `CCCC[C@@H]1CN(c2ccccc2)c2cc(N(C)C)c(-c3ccc(F)c(C(=O)O)c3)cc2S(=O)(=O)N1C` [Example 524], under setting [1], the EC50 is below 0.1 µM.

Turning to `CC(C)Oc1cc2c(cc1-c1ccc(F)c(C(=O)O)c1)S(=O)(=O)N(C)[C@H](C1CCCCC1)CN2c1ccccc1` [Example 357], the EC50 under setting [1] was below 0.1 µM.

With `Cc1sccc1COc1cc2c(cc1-c1ccc(F)c(C(=O)O)c1)S(=O)(=O)N(C)[C@H](C1CCCCC1)CN2c1ccccc1` [Example 339], under setting [1], the EC50 is below 0.1 µM.

As for `CN1[C@H](C2CCCCC2)CN(c2ccccc2)c2cc(OC3CCC(C)(C)CC3)c(-c3ccc(F)c(C(=O)O)c3)cc2S1(=O)=O` [Example 386], under setting [1], the EC50 was in the range of 0.1 to 1 µM.

Consider `CN1[C@H](C2CCCCC2)CN(c2ccccc2)c2cc(Cl)c(-c3ccc(Cl)c(S(N)(=O)=O)c3)cc2S1(=O)=O` [Example 200], for which the EC50 under setting [1] fell in the range of 0.1 to 1 µM.

Turning to `O=C(O)c1cccc(-c2cc3c(cc2F)N(c2ccccc2)CC2c4ccccc4CN2S3(=O)=O)c1` (stereo not drawn) [Example 3], the EC50 under setting [1] is above 1 µM.

As to `CN1[C@H](C2CCCCC2)CN(c2ccccc2)c2cc(Cl)c(-c3ccc(C(=O)O)s3)cc2S1(=O)=O` [Example 130, (R)-5-(7-chloro-3-cyclohexyl-2-methyl-1,1-dioxido-5-phenyl-2,3,4,5-tetrahydrobenzo[f][1,2,5]thiadiazepin-8-yl)thiophene-2-carboxylic acid], the EC50 under setting [1] was below 0.1 µM.

Regarding `CCCCCCN1C[C@@H](C2CCCCC2)N(C)S(=O)(=O)c2cc(-c3ccc(F)c(C(=O)O)c3)c(Cl)cc21` [Example 324], the EC50 under setting [1] lay within 0.1 to 1 µM.

As to `CC(C)CC1CN(c2ccccc2)c2cc(Cl)c(-c3cc(F)cc(C(=O)O)c3)cc2S(=O)(=O)N1C` (stereo not drawn) [Example 36], the EC50 under setting [1] lay in the range of 0.1 to 1 µM.

As to `CC(C)C[C@@H]1CN(c2ccccc2)c2cc(Oc3cccc(OC(F)(F)F)c3)c(-c3ccc(F)c(C(=O)O)c3)cc2S(=O)(=O)N1C` [Example 438], the EC50 under setting [1] was below 0.1 µM.

Consider `CN1[C@H](C2CCCCC2)CN(c2ccccc2)c2cc(C3CN(C(=O)OC(C)(C)C)C3)c(-c3ccc(F)c(C(=O)O)c3)cc2S1(=O)=O` [Example 594], for which the EC50 under setting [1] was in the range of 0.1 to 1 µM.

In the case of `CN1[C@H](C2CCC2)CN(c2ccccc2)c2cc(Cl)c(-c3cccc(C(=O)C(=O)O)c3)cc2S1(=O)=O` [Example 206], the EC50 under setting [1] is below 0.1 µM.

For the molecule `CN1[C@H](C2COC2)CN(c2ccccc2)c2cc(Cl)c(-c3ccc(F)c(C(=O)O)c3)cc2S1(=O)=O` [Example 106], the EC50 under setting [1] was above 1 µM.

On to `CN1[C@H](C2CCCCC2)CN(c2ccccc2)c2cc(Cl)c(-c3cnc(O)c(C(=O)O)c3)cc2S1(=O)=O` [Example 193], for which the EC50 under setting [1] lay in the range of 0.1 to 1 µM.

`COc1cccc(N2C[C@@H](C3CCCCC3)N(C)S(=O)(=O)c3cc(-c4ccc(F)c(C(=O)O)c4)c(Cl)cc32)c1` [Example 305]: the EC50 under setting [1] lay in the range of 0.1 to 1 µM.

Consider `CN1[C@H](C2CCCCC2)CN(c2cnc(C(F)(F)F)nc2)c2cc(Cl)c(-c3ccc(F)c(C(=O)O)c3)cc2S1(=O)=O` [Example 288], for which the EC50 under setting [1] is 0.1 to 1 µM.

For orientation: EC50 means the concentration giving half of the maximal effect.
